Results: ChEMBL document CHEMBL1138460, “Synthesis of a new opioid ligand having the oxabicyclo[3.2.1]octane skeleton using a new rearrangement reaction” (Bioorg Med Chem Lett, 2009)

Experiments:
[1] = Displacement of [3H]NTI from delta opioid receptor in guinea pig forebrain; parameters: species or system Cavia porcellus
[2] = molecular target: Opioid receptor (mu and kappa) (Cavia porcellus) (UniProt P41144+P97266); experiment: Ratio of Ki for guinea pig mu opioid receptor to Ki for guinea pig kappa opioid receptor
[3] = molecular target: Kappa-type opioid receptor (Cavia porcellus, UniProt P41144); experiment: Displacement of [3H]U69593 from kappa opioid receptor in guinea pig cerebellum; type: tissue-based
Mu-type opioid receptor = Mu-type opioid receptor (Cavia porcellus, UniProt P97266); experiment: Displacement of [3H]DAMGO from mu opioid receptor in guinea pig forebrain
Chain of Mu-type opioid receptor (P97266 whole entry): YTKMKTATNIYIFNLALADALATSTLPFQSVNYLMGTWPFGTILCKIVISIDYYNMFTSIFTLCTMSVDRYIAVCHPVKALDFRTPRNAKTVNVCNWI

Chain of Opioid receptor (mu and kappa) (Cavia porcellus) (P41144 whole entry, looked up): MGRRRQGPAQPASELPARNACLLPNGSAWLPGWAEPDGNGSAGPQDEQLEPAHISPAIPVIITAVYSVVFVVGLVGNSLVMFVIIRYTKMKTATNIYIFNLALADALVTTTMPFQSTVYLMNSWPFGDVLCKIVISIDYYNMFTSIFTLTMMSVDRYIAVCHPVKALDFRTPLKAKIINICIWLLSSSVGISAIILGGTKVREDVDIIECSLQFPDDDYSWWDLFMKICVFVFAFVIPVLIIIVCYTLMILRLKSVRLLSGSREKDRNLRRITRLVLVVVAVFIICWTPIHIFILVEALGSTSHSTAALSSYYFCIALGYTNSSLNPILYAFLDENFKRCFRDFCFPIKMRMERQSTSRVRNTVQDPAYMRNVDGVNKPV
Chain of Opioid receptor (mu and kappa) (Cavia porcellus) (P97266 whole entry, looked up): as the sequence (P97266 whole entry) above
Chain of Kappa-type opioid receptor (P41144 whole entry): as the sequence (P41144 whole entry, looked up) above

SMILES	Ki [1]	Ratio Ki [2]	Ki [3]	Ki (Mu-type opioid receptor)
O=C1CC[C@@]2(O)[C@H]3Cc4ccc(O)c5c4[C@@]2(CCN3CC2CC2)[C@H]1O5 [NALTREXONE]	20.7 nM	–	–	–
OC[C@]12CC[C@@]3(O1)[C@H]1Cc4ccc(O)cc4[C@@]3(CCN1CC1CC1)C2	3.5 nM	1.42	0.102 nM	0.145 nM
O=C1C[C@]23CCN(CC4CC4)[C@H](Cc4ccc(O)cc42)[C@]32CC[C@H]1O2	6.84 nM	1.7	0.233 nM	0.397 nM
